Measurements published in publication PMC3110694 (Science (New York, N.Y.), 2010).
“Also recorded” adds a separate entry of the source.

Tests used:
[1] = molecular target: β-glucuronidase activity in cultured E. coli cells (Escherichia coli, UniProt P05804); experiment: β-glucuronidase activity in living E. coli cells; assay type: cell-based
E. coli β-glucuronidase = E. coli β-glucuronidase (Escherichia coli, UniProt P05804); experiment: E. coli β-glucuronidase in vitro inhibition assay; assay type: biochemical; settings: errors SD, N = 3
E. coli β-glucuronidase, sequence (P05804 whole entry): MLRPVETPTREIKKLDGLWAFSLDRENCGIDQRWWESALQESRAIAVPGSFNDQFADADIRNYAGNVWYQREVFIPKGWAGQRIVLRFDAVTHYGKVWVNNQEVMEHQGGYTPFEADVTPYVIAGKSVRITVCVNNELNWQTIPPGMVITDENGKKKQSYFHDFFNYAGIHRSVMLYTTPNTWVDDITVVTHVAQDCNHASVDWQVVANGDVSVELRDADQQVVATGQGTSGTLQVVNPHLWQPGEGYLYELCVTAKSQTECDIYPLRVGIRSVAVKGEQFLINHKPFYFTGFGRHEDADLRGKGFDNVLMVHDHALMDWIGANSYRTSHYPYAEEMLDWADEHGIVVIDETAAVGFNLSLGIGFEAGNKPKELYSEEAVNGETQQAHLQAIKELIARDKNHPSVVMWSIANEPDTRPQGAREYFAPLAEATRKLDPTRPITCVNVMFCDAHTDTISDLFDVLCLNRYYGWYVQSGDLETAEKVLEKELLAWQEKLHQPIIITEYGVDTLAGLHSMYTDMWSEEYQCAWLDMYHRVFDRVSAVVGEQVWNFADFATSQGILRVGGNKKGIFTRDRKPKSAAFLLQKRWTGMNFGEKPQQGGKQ

Balb/cJ mice = experiment: CPT-11-induced delayed diarrhea and intestinal damage in mice

β-glucuronidase activity in cultured E. coli cells, sequence (P05804 whole entry): as above

Question: glucaro-δ-lactam [reference compound] was tested. Which EC50 ([1]; E. coli cell-based, errors SD, N = 3) did it give?
Answer: N.E.

Question: And the “effect on β-glucuronidase activity in cultured E. coli cells” value ([1]; cultured E. coli, listed as GDL)?
Answer: did not disrupt β-glucuronidase activity; also recorded: no effect

Question: What about the IC50 (E. coli β-glucuronidase) of the same compound?
Answer: 26.4 ± 0.483 µM

Question: And the Ki (E. coli β-glucuronidase)?
Answer: 7.75 ± 0.475 µM

Question: How did the “diarrhea and bloody diarrhea, CPT-11 only” value (Balb/cJ mice; group 3: CPT-11 50 mg per kg i.p. once daily, no Inhibitor 1, days 8 to 10) turn out when `CCc1c2c(nc3ccc(OC(=O)N4CCC(N5CCCCC5)CC4)cc13)-c1cc3c(c(=O)n1C2)COC(=O)[C@]3(O)CC` [CPT-11, irinotecan, reference compound] was run?
Answer: all the animals; also recorded: produced bloody diarrhea starting after 8 days and peaking at 10 days

Question: What about the “colonic tissue histology, CPT-11 only” value (Balb/cJ mice; group 3: CPT-11 only) of the same compound?
Answer: destroyed these tissues; also recorded: highly disrupted tissues

Question: And the “euthanasia, CPT-11 only” value (Balb/cJ mice; group 3: CPT-11 only, by day 11)?
Answer: all the group 3 animals had to be euthanized
